pEC50, pIC50: −log10 of the molar value. Where two headings read alike, the source gives them in different places.
Tests used:
human ETB receptor = molecular target: T1, human ETB receptor (Homo sapiens, UniProt P24530); assay: Binding Test #2: inhibition of 125I-endothelin-1 binding to ETB receptors (transfected COS7 cell membranes); settings: incubation at 24° C.; generally the average of 2 to 3 experiments
T1 construct: expressed in transfected cells; host or cells: COS7 cells
T1 sequence (P24530 27-442): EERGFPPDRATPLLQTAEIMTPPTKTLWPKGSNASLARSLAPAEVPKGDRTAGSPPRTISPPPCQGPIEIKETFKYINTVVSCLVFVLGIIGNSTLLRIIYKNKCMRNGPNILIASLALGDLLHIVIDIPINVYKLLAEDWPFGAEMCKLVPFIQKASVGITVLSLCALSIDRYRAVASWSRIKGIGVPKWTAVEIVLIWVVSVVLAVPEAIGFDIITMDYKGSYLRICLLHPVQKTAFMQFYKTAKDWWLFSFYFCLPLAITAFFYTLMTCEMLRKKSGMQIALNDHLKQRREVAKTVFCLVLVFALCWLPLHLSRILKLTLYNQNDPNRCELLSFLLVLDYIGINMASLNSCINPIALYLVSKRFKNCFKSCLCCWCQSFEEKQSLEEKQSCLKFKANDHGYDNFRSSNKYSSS
Excerpt: (§1) Compounds that are potential endothelin antagonists are identified by testing their ability to compete with ^125I-labeled ET-1 for binding to human ETA receptors or ETB receptors present on isolated cell membranes. The effectiveness of the test compound as an antagonist or agonist of the biological tissue response of endothelin can also be assessed by measuring the effect on endothelin induced contraction of isolated rat thoracic aortic rings. The ability of the compounds to act as antagonists or agonists for ETB receptors can be assess by testing the ability of the compounds are to inhibit endothelin-1 induced prostacyclin release from cultured bovine aortic endothelial cells.
COS7 cells were transfected with DNA encoding the ETB receptor, The resulting cells, which express the human ETB receptor, were grown to confluence in T-150 flasks. Membrane was prepared as described above. The binding assay was performed as described above using the membrane preparation diluted with binding buffer to a concentration of 1 μg/50 μl.
Briefly, the COS7 cells, described above, that had been transfected with DNA encoding the ETB receptor and express the human ETB receptor on their surfaces were grown to confluence in T-175 flasks. Cells from multiple flasks were collected by scraping, pooled and centrifuged for 10 min at 190×g. The cells were resuspended in phosphate buffered saline (PBS) containing 10 mM EDTA using a Tenbroeck homogenizer. The suspension was centrifuged at 4° C. 57,800×g for 15 min, the pellet was resuspended in 5 ml of buffer A (5mM HEPES buffer, pH 7.4 containing aprotinin (100 KIU/ml)) and then frozen and thawed once. Five ml of Buffer B (5 mM HEPES Buffer, pH 7.4 containing 10 mM MnCl2 and 0.001% deoxyribonuclease Type 1) was added, the suspension mixed by inversion and then incubated at 37° C. for 30 minutes. The mixture was centrifuged at 57,800×g as described above, the pellet washed twice with buffer A and then resuspended in buffer C (30 mM HEPES buffer, pH 7.4 containing aprotinin (100 KIU/ml) to give a final protein concentration of 2 mg/ml.
The binding assay was performed as described above using the membrane preparation diluted to give 1 μg/50, μl of binding buffer.

human ETA receptors = molecular target: T2, human ETA receptors (Homo sapiens, UniProt P25101); assay: Binding Test #1: inhibition of 125I-endothelin-1 binding to ETA receptors (TE 671 cell membranes); settings: incubation at 24° C.; generally the average of 2 to 3 experiments
T2 construct: host or cells: TE 671 cells (membranes)
T2 sequence (P25101 21-427): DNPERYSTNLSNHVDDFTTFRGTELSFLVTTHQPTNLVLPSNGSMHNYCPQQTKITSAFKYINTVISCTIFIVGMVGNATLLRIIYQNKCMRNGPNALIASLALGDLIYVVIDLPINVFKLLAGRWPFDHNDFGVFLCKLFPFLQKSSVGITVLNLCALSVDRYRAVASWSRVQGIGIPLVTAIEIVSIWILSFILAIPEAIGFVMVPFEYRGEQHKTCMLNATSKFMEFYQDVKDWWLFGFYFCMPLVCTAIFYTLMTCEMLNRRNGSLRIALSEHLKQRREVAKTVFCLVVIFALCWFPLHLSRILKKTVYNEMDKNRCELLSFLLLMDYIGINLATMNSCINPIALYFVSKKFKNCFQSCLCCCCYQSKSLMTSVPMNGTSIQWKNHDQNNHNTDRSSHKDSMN
Excerpt: as §1
TE 671 cells (ATCC Accession No. HTB 139) express ETA receptors. These cells were grown to confluence in T-175 flasks. Cells from multiple flasks were collected by scraping, pooled and centrifuged for 10 min at 190×g. The cells were resuspended in phosphate buffered saline (PBS) containing 10 mM EDTA using a Tenbroeck homogenizer. The suspension was centrifuged at 4° C. at 57,800×g for 15 min, the pellet was resuspended in 5 ml of buffer A (5 mM HEPES buffer, pH 7.4 containing aprotinin (100 KIU/ml)) and then frozen and thawed once. 5 ml of Buffer B (5 mM HEPES Buffer, pH 7.4 containing 10 mM MnCl2 and 0.001 % deoxyribonuclease Type 1) was added, the suspension mixed by inversion and then incubated at 37° C. for 30 minutes. The mixture was centrifuged at 57,800×g as described above, the pellet washed twice with buffer A and then resuspended in buffer C (30 mM HEPES buffer, pH 7.4 containing aprotinin (100 KIU/ml) to give a final protein concentration of 2 mg/ml and stored at −70° C. until use.
The membrane suspension was diluted with binding buffer (30 mM HEPES buffer, pH 7.4 containing 150 mM NaCl, 5 mM MgCl2, 0.5% Bacitracin) to a concentration of 8 μg/50, μl. ^125I-endothelin-1 (3,000 cpm, […]) was added to 50 μl of either: (A) endothelin-1 (for non specific binding) to give a final concentration 80 nM); (B) binding buffer (for total binding); or (C) a test compound (final concentration 1 nM to 100 μM). The membrane suspension (50 μl), containing up to 8 μg of membrane protein, was added to each of (A), (B), or (C). Mixtures were shaken, and incubated at 4° C. for 16-18 hours, and then centrifuged at 4° C. for 25 min at 2,500×g. Alternatively, the incubation was conducted at 24° C. When incubated at 24° C., the IC50 concentrations are 2- to 10-fold higher than when the incubation is conducted at 4° C. This, must be kept in mind when comparing IC50 concentrations among compounds provided herein.
The supernatant, containing unbound radioactivity, was decanted and the pellet counted on a Genesys multiwell gamma counter. The degree of inhibition of binding (D) was calculated according to the following equation: [formula]
Each test was generally performed in triplicate.

ETB receptors = settings: concentrations up to 100 μM; cited from earlier work
ETA receptor = settings: cited from earlier work; for pIC50: read-out: IC50, inhibition of 125I-labelled endothelin-1 binding
isolated vascular strips = settings: read-out: EC50, contractile agent; cited from earlier work

| Compound | pIC50 (human ETB receptor) | pIC50 (human ETA receptors) | other results |
| --- | --- | --- | --- |
| Cc1noc(NS(=O)(=O)c2c(Cc3cccc4ccccc34)sc3ncccc23)c1Cl [N-(4-chloro-3-methyl-5-isoxazolyl)-2-(1-naphthylmethyl)thieno[2,3-b]pyridine-3-sulfonamide] | 6.25 | 7.47 |  |
| Cc1ccc(Cc2sc3ncccc3c2S(=O)(=O)Nc2onc(C)c2Cl)c(C)c1 [N-(4-chloro-3-methyl-5-isoxazolyl)-2-(2,4-dimethylbenzyl)thieno[2,3-b]pyridine-3-sulfonamide] | 5.82 | 8.35 |  |
| COc1cccc(OC)c1Cc1sc2ncccc2c1S(=O)(=O)Nc1onc(C)c1Cl [N-(4-chloro-3-methyl-5-isoxazolyl)-2-(2,6-dimethoxybenzyl)thieno[2,3-b]pyridine-3-sulfonamide] | 5.00 | 6.19 |  |
| Cc1noc(NS(=O)(=O)c2c(Cc3cc4c(cc3CCO)OCO4)sc3ncccc23)c1Cl [N-(4-chloro-3-methyl-5-isoxazolyl)-2-[2-(2-hydroxyethyl)-4,5-(methylenedioxy)benzyl]thieno[2,3-b]pyridine-3-sulfonamide] | 5.44 | 8.82 |  |
| Cc1cc2c(cc1Cc1sc3ncccc3c1S(=O)(=O)Nc1onc(C)c1Cl)OCO2 [N-(4-chloro-3-methyl-5-isoxazolyl)-2-[2-methyl-4,5-(methylene-dioxy)benzyl]thieno [2,3-b]pyridine-3-sulfonamide] | 5.80 | 8.82 |  |
| Cc1noc(NS(=O)(=O)c2c(C(=O)c3ccc4c(c3)OCO4)sc3ncccc23)c1Cl [N-(4-chloro-3-methyl-5-isoxazolyl)-2-[3,4-(methylenedioxy)benzoyl]-thieno [2,3-b]pyridine-3-sulfonamide] | 4.51 | 6.02 |  |
| Cc1noc(NS(=O)(=O)c2c(Cc3ccc4c(c3)OCO4)sc3ncccc23)c1Cl [N-(4-chloro-3-methyl-5-isoxazolyl)-2-[3,4-(methylenedioxy)benzyl]thieno [2,3-b]pyridine-3-sulfonamide] | 5.55 | 8.25 |  |
| Cc1noc(NS(=O)(=O)c2c(C(=O)CCc3ccc4c(c3)OCO4)sc3ncccc23)c1Cl [N-(4-chloro-3-methyl-5-isoxazolyl)-2-[3-(3,4-methylenedioxyphenyl)-proponyl]thieno [2,3-b]pyridine-3-sulfonamide] | 5.18 | 7.35 |  |
| CCc1sc2ncccc2c1S(=O)(=O)Nc1onc(C)c1Cl [N-(4-chloro-3-methyl-5-isoxazolyl)-2-ethylthieno[2,3-b]pyridine-3-sulfonamide] | 4.41 | 7.17 |  |
| Cc1noc(NS(=O)(=O)c2csc3ncccc23)c1Cl [N-(4-chloro-3-methyl-5-isoxazolyl)thieno[2,3-b]pyridine-3-sulfonamide] | < 4.00 | 5.74 |  |
| Cc1cc2c(cc1Cc1sc3ncccc3c1S(=O)(=O)Nc1noc(C)c1Cl)OCO2 [N-(4-chloro-5-methyl-3-isoxazolyl)-2-[2-methyl-4,5-(methylenedioxy)-benzyl]thieno[2,3-b]pyridine-3-sulfonamide] | 6.30 | 9.00 |  |
| CCc1sc2ncccc2c1S(=O)(=O)Nc1noc(C)c1Cl [N-(4-chloro-5-methyl-3-isoxazolyl)-2-ethylthieno [2,3-b]pyridine-3-sulfonamide] | 4.52 | 7.35 |  |
| cyclo(D-Glu-L-Ala-allo-D-llc-L-Leu-D-Trp) [BE-18257B] |  |  | inhibition of binding to receptors in tissues in which ETB receptors predominate (ETB receptors): fails to inhibit binding; pIC50 (ETA receptor; aortic smooth muscle): 5.85; pIC50 (ETA receptor; cultured aortic smooth muscle cells): 6.30; pIC50 (ETA receptor; ventricle membranes): 6.10 |
| endothelin-1: potent twenty-one amino acid peptide vasoconstrictor |  |  | potency of inhibition of 125I-labelled endothelin-1 binding relative to endothelin-3 (ETA receptor; cardiovascular tissues): forty to seven hundred times more potently than endothelin-3; pEC50 (isolated vascular strips): 9.40 |

Source: US6545014B2, “Method of treating glaucoma” (Texas Biotechnology Corporation, priority 1991, dated 2003)
